The values that follow come from ChEMBL document CHEMBL3751771, “LpxC Inhibitors as Effective Therapy Against Multidrug Resistant Bacterial Infections” (2015).

Converted amounts (≈) assume the structure as drawn.

What is called MIC is the least concentration at which growth counts as inhibited.

Holding throughout (type): functional
One test relates to Klebsiella pneumoniae. Nature of the test: Antibacterial activity against Klebsiella pneumoniae A-651.
In another test the test system is Escherichia coli. The experiment in a line: Antibacterial activity against Escherichia coli ATCC 25922.
The test system of another test is Pseudomonas aeruginosa. The experiment in a line: Antibacterial activity against Pseudomonas aeruginosa ATCC 27853.

Regarding `CCOc1ccc(-c2cc3n(c2)C(=O)N(CC[C@](C)(C(=O)NO)S(C)(=O)=O)C3)c(Cl)c1`, the values for the MIC in the test on Klebsiella pneumoniae, against Escherichia coli and against Pseudomonas aeruginosa were 0.125 µg/mL (≈ 0.266 µM), not above 0.063 µg/mL and 4 µg/mL (≈ 8.51 µM), respectively.

On to `C[C@@](CCN1Cc2cc(C#Cc3ccc(COC(N)=O)cc3)cn2C1=O)(C(=O)NO)S(C)(=O)=O`, for which the MIC against Klebsiella pneumoniae is 0.25 µg/mL (≈ 0.512 µM); against Escherichia coli, not above 0.063 µg/mL; against Pseudomonas aeruginosa, 0.5 µg/mL (≈ 1.02 µM).

Turning to `C[C@@](CCN1Cc2cc(C#Cc3ccc(OCCO)cc3)cn2C1=O)(C(=O)NO)S(C)(=O)=O`, the MIC with Klebsiella pneumoniae is 0.5 µg/mL (≈ 1.05 µM); in the test with Escherichia coli, 0.125 µg/mL (≈ 0.263 µM); in the test on Pseudomonas aeruginosa, 1 µg/mL (≈ 2.1 µM).

With `COc1ccc(-c2cc3n(c2)C(=O)N(CC[C@](C)(C(=O)NO)S(C)(=O)=O)C3)c(F)c1`, the minimum inhibitory concentration (MIC) was not above 0.063 µg/mL in the test with Klebsiella pneumoniae, 0.125 µg/mL (≈ 0.284 µM) in the test with Escherichia coli and 1 µg/mL (≈ 2.28 µM) in the test on Pseudomonas aeruginosa.

In the case of `C[C@@](CCN1Cc2cc(C#Cc3ccc(C4(CN)CC4)cc3)cn2C1=O)(C(=O)NO)S(C)(=O)=O.O=CO`, the MIC against Klebsiella pneumoniae came to 8 µg/mL; in the test with Escherichia coli, 8 µg/mL; with Pseudomonas aeruginosa, 4 µg/mL.

Regarding `C[C@@](CCN1Cc2cc(C#CC#C[C@@H]3C[C@@]3(F)CO)cn2C1=O)(C(=O)NO)S(C)(=O)=O`, the minimum inhibitory concentration (MIC) against Klebsiella pneumoniae amounted to 0.25 µg/mL (≈ 0.554 µM); against Escherichia coli, 0.25 µg/mL (≈ 0.554 µM); in the test on Pseudomonas aeruginosa, 0.5 µg/mL (≈ 1.11 µM).
